From the supplement of paper PMC11208160

Test: recombinant UMI read abundance after kanamycin selection (control-corrected) (log10(CPM+1)); higher = more efficient recombination; extreme values may be limits of the assay; sequences stand for … in AGTGCAGAGAAAATCGGCCAGTTTTCTCTGCCTGCAGTCCGCATGCCGTGGGACCCCTTGGGTTCTAACCTGTTGCCTAGATTTATGCAGCGGACTGCCTTTCTCCCAAAGTGATAAACCGG…AGGTTGGTTTCACT; site = the 11-nt donor
Method in brief: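 Reported values are log10(CPM+1) from a pooled Escherichia coli screen of donor and donor-binding-loop pairs for the IS621 bridge recombinase. Selection used IPTG (0.07 mM) plus kanamycin, against unselected plating, each in two replicates. Recombinant UMIs were amplified across the donor–target junction, sequenced, converted to CPM, averaged over replicates and scaled by control-derived factors.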
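Also: IS621 bridge recombinase in Escherichia coli cells against a fixed T5 target plasmid.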

“TGGCCGACATGGACCGGTTTTCCCGGTAATCCGTATTTGGC (site TGGCCGGCTGC)” and “TGGCCGACATGGACCGGTTTTCCCGGTAATCCGTATTTGGC (site TGGCCGTCTGC)” are within 0.2 log units of each other in “recombinant UMI read abundance (log10)” value: 0.00648 for the first, 0 for the second.

“TGGCCGGCATGGACCGGTTTTCCCGGTAATCCGTATTTGAC (site TGGCCGGCTGA)” and “TGGCCGGCATGGACCGGTTTTCCCGGTAATCCGTATTTGAC (site TGGCCGGCTGC)” are within 0.2 log units of each other in “recombinant UMI read abundance (log10)” value: 0.00628 for the first, 0 for the second.

First: TGGCCGGCATGGACCGGTTTTCCCGGTAATCCGTATTTGAC (site TGGCCGGCTGG)
Second: TGGCCGGCATGGACCGGTTTTCCCGGTAATCCGTATTTGAC (site TGGCCGGCTGT)
The “recombinant UMI read abundance (log10)” value of the first is lower: 0 for the first, 1.4 for the second.

“TGGCCGGCATGGACCGGTTTTCCCGGTAATCCGTATTTGGT (site TGGCCGGCTAC)” and “TGGCCGGCATGGACCGGTTTTCCCGGTAATCCGTATTTGGT (site TGGCCGGCTCC)” are within 0.2 log units of each other in “recombinant UMI read abundance (log10)” value: 0.0121 for the first, 0.022 for the second.

“TGGCCGGCATGGACCGGTTTTCCCGGTAATCCGTATTTGGT (site TGGCCGGCTGC)” and “TGGCCGGCATGGACCGGTTTTCCCGGTAATCCGTATTTGGT (site TGGCCGGCTTC)” are within 0.2 log units of each other in “recombinant UMI read abundance (log10)” value: 0 for the first, 0.0272 for the second.

“TGGCTCACATGGACCGGTTTTCCCGGTAATCCGTATTTGTG (site TGGCTCACTCA)” and “TGGCTTCCATGGACCGGTTTTCCCGGTAATCCGTATTTGCT (site TGGCTTCCTAG)” are within 0.2 log units of each other in “recombinant UMI read abundance (log10)” value: 0.0236 for the first, 0 for the second.

“TGGGAAACATGGACCGGTTTTCCCGGTAATCCGTATTTGGT (site TGGGAAACTAC)” and “TGGGCCACATGGACCGGTTTTCCCGGTAATCCGTATTTGCA (site TGGGCCACTTG)” are within 0.2 log units of each other in “recombinant UMI read abundance (log10)” value: 1.29 for the first, 1.45 for the second.

Going from “TGGGCGGCATGGACCGGTTTTCCCGGTAATCCGTATTTGGC (site TGGACGGCTGC)” to “TGGGCGGCATGGACCGGTTTTCCCGGTAATCCGTATTTGGC (site TGGCCGGCTGC)”, the “recombinant UMI read abundance (log10)” value falls from 1.49 to 0.

First: TGGGCGGCATGGACCGGTTTTCCCGGTAATCCGTATTTGGC (site TGGGCGGCTGC)
Second: TGGGCGGCATGGACCGGTTTTCCCGGTAATCCGTATTTGGC (site TGGTCGGCTGC)
The “recombinant UMI read abundance (log10)” value of the first is higher: 2.09 for the first, 0 for the second.

“TGGGCTACATGGACCGGTTTTCCCGGTAATCCGTATTTGCA (site TGGGCTACTTG)” and “TGGGTAACATGGACCGGTTTTCCCGGTAATCCGTATTTGAC (site TGGGTAACTGT)” are within 0.2 log units of each other in “recombinant UMI read abundance (log10)” value: 1.79 for the first, 1.61 for the second.

First: TGGGTAGCATGGACCGGTTTTCCCGGTAATCCGTATTTGGG (site TGGGTAGCTCC)
Second: TGGGTGACATGGACCGGTTTTCCCGGTAATCCGTATTTGAG (site TGGGTGACTCT)
The “recombinant UMI read abundance (log10)” value of the first is lower: 0 for the first, 0.83 for the second.

“TGGTAACCATGGACCGGTTTTCCCGGTAATCCGTATTTGTG (site TGGTAACCTCA)” and “TGGTCAACATGGACCGGTTTTCCCGGTAATCCGTATTTGCG (site TGGTCAACTCG)” are within 0.2 log units of each other in “recombinant UMI read abundance (log10)” value: 0.0137 for the first, 0.0115 for the second.

Going from “TGGTCCTCATGGACCGGTTTTCCCGGTAATCCGTATTTGTC (site TGGTCCTCTGA)” to “TGGTCGGCATGGACCGGTTTTCCCGGTAATCCGTATTTGGC (site TGGACGGCTGC)”, the “recombinant UMI read abundance (log10)” value falls from 1.33 to 0.

Going from “TGGTCGGCATGGACCGGTTTTCCCGGTAATCCGTATTTGGC (site TGGCCGGCTGC)” to “TGGTCGGCATGGACCGGTTTTCCCGGTAATCCGTATTTGGC (site TGGGCGGCTGC)”, the “recombinant UMI read abundance (log10)” value falls from 0.682 to 0.00726.

Going from “TGGTCGGCATGGACCGGTTTTCCCGGTAATCCGTATTTGGC (site TGGTCGGCTGC)” to “TGGTCTGCATGGACCGGTTTTCCCGGTAATCCGTATTTGCG (site ACCGTCTCTGA)”, the “recombinant UMI read abundance (log10)” value falls from 0.268 to 0.

“TGGTGTACATGGACCGGTTTTCCCGGTAATCCGTATTTGAA (site TGGTGTACTTT)” and “TGGTTTCCATGGACCGGTTTTCCCGGTAATCCGTATTTGCC (site TGGTTTCCTGG)” are within 0.2 log units of each other in “recombinant UMI read abundance (log10)” value: 0.131 for the first, 0 for the second.

Going from “TGTAAAGCATGGACCGGTTTTCCCGGTAATCCGTATTTGAC (site TGTAAAGCTGT)” to “TGTACAACATGGACCGGTTTTCCCGGTAATCCGTATTTGCT (site TGTACAACTAG)”, the “recombinant UMI read abundance (log10)” value rises from 0.0139 to 0.836.

“TGTACCCCATGGACCGGTTTTCCCGGTAATCCGTATTTGTA (site TGTACCCCTTA)” and “TGTACCCCATGGACCGGTTTTCCCGGTAATCCGTATTTGTA (site TGTCCCCCTTA)” are within 0.2 log units of each other in “recombinant UMI read abundance (log10)” value: 0.292 for the first, 0.253 for the second.

“TGTACCCCATGGACCGGTTTTCCCGGTAATCCGTATTTGTA (site TGTGCCCCTTA)” and “TGTACCCCATGGACCGGTTTTCCCGGTAATCCGTATTTGTA (site TGTTCCCCTTA)” are within 0.2 log units of each other in “recombinant UMI read abundance (log10)” value: 0 for the first, 0.00713 for the second.

“TGTACCGCATGGACCGGTTTTCCCGGTAATCCGTATTTGGG (site TGTACCGCTCC)” and “TGTACCTCATGGACCGGTTTTCCCGGTAATCCGTATTTGGG (site TGTACCTCTCC)” are within 0.2 log units of each other in “recombinant UMI read abundance (log10)” value: 0.0251 for the first, 0.0503 for the second.

“TGTACCTCATGGACCGGTTTTCCCGGTAATCCGTATTTGGT (site TGTACCTCTAC)” and “TGTACGTCATGGACCGGTTTTCCCGGTAATCCGTATTTGTT (site AGTACGTCTAA)” are within 0.2 log units of each other in “recombinant UMI read abundance (log10)” value: 0.0562 for the first, 0.00241 for the second.

“TGTACGTCATGGACCGGTTTTCCCGGTAATCCGTATTTGTT (site CGTACGTCTAA)” and “TGTACGTCATGGACCGGTTTTCCCGGTAATCCGTATTTGTT (site GGTACGTCTAA)” are the same in “recombinant UMI read abundance (log10)” value: 0.031 for the first, 0.031 for the second.

“TGTACGTCATGGACCGGTTTTCCCGGTAATCCGTATTTGTT (site TGTACGTCTAA)” and “TGTACTACATGGACCGGTTTTCCCGGTAATCCGTATTTGGT (site TGTACTACTAC)” are within 0.2 log units of each other in “recombinant UMI read abundance (log10)” value: 0.00887 for the first, 0.00344 for the second.

First: TGTAGAACATGGACCGGTTTTCCCGGTAATCCGTATTTGCC (site TGTAGAACTGG)
Second: TGTAGAACATGGACCGGTTTTCCCGGTAATCCGTATTTGGG (site TGTAGAACTCC)
The “recombinant UMI read abundance (log10)” value of the first is higher: 0.754 for the first, 0.00647 for the second.

Going from “TGTAGTACATGGACCGGTTTTCCCGGTAATCCGTATTTGAC (site TGTAGTACTGT)” to “TGTATCGCATGGACCGGTTTTCCCGGTAATCCGTATTTGCT (site TGTATCGCTAG)”, the “recombinant UMI read abundance (log10)” value rises from 0.509 to 1.57.

Compared with “TGTATTTCATGGACCGGTTTTCCCGGTAATCCGTATTTGGG (site TGTATTTCTCC)”, “TGTCGTCCATGGACCGGTTTTCCCGGTAATCCGTATTTGCA (site TGTCGTCCTTG)” is higher in “recombinant UMI read abundance (log10)” value: 0.402 for the first, 0.616 for the second.

“TGTCTTCCATGGACCGGTTTTCCCGGTAATCCGTATTTGTC (site TGTCTTCCTGA)” and “TGTGATTCATGGACCGGTTTTCCCGGTAATCCGTATTTGTT (site TGTGATTCTAA)” are the same in “recombinant UMI read abundance (log10)” value: 0 for the first, 0 for the second.

“TGTTAACCATGGACCGGTTTTCCCGGTAATCCGTATTTGTC (site TGTTAACCTGA)” and “TGTTAGACATGGACCGGTTTTCCCGGTAATCCGTATTTGAG (site AGTTAGACTCT)” are within 0.2 log units of each other in “recombinant UMI read abundance (log10)” value: 0 for the first, 0.103 for the second.

“TGTTAGACATGGACCGGTTTTCCCGGTAATCCGTATTTGAG (site CGTTAGACTCT)” and “TGTTAGACATGGACCGGTTTTCCCGGTAATCCGTATTTGAG (site GGTTAGACTCT)” are within 0.2 log units of each other in “recombinant UMI read abundance (log10)” value: 0.204 for the first, 0.0119 for the second.

First: TGTTAGACATGGACCGGTTTTCCCGGTAATCCGTATTTGAG (site TGTTAGACTCT)
Second: TGTTCCGCATGGACCGGTTTTCCCGGTAATCCGTATTTGTC (site TGTTCCGCTGA)
The “recombinant UMI read abundance (log10)” value of the first is lower: 0.233 for the first, 1.06 for the second.

First: TGTTGAGCATGGACCGGTTTTCCCGGTAATCCGTATTTGCA (site TGTTGAGCTTG)
Second: TGTTTAGCATGGACCGGTTTTCCCGGTAATCCGTATTTGGG (site TGTTTAGCTCC)
The “recombinant UMI read abundance (log10)” value of the first is higher: 0.98 for the first, 0.00333 for the second.

“TTAAAGCCATGGACCGGTTTTCCCGGTAATCCGTATTTGGC (site TTAAAGCCTGC)” and “TTAATATCATGGACCGGTTTTCCCGGTAATCCGTATTTGAC (site CTAGTATCTGT)” are the same in “recombinant UMI read abundance (log10)” value: 0 for the first, 0 for the second.

Going from “TTAATATCATGGACCGGTTTTCCCGGTAATCCGTATTTGAC (site TTAATATCTGT)” to “TTACAAACATGGACCGGTTTTCCCGGTAATCCGTATTTGAG (site TTACAAACTCT)”, the “recombinant UMI read abundance (log10)” value rises from 1.18 to 2.21.

Compared with “TTACCCACATGGACCGGTTTTCCCGGTAATCCGTATTTGTG (site TTACCCACTCA)”, “TTACGCTCATGGACCGGTTTTCCCGGTAATCCGTATTTGAT (site TTACGCTCTAT)” is higher in “recombinant UMI read abundance (log10)” value: 0.0352 for the first, 1.93 for the second.
